Each compound was assayed against T1, human αVβ6 (Homo sapiens, UniProt P06756+P18564) (assay: human αVβ6 HTRF binding assay).
T1 construct: purchased R & D systems 3817-AV
Description: All binding assays used the HTRF (homogeneous time resolved fluorescence) technology from Cisbio International, therefore all assays are described as HTRF binding assays. The assay results for the Examples are listed above together with the characterization data. The HTRF binding assays are established for the following integrins: human αVβ6, human αVβ1, human αVβ3, human αVβ5, and human αVβ8. All assays used the following assay buffer: 20 mM Tris, pH 7.4, 1 mM MgCl2, 1 mM MnCl2, 0.01% Tween 20, and 0.01% BSA. Alternatively, a SPA-based assay was used for evaluation of receptor binding.
[…]

T1 sequence (P06756 31-992 limits assumed): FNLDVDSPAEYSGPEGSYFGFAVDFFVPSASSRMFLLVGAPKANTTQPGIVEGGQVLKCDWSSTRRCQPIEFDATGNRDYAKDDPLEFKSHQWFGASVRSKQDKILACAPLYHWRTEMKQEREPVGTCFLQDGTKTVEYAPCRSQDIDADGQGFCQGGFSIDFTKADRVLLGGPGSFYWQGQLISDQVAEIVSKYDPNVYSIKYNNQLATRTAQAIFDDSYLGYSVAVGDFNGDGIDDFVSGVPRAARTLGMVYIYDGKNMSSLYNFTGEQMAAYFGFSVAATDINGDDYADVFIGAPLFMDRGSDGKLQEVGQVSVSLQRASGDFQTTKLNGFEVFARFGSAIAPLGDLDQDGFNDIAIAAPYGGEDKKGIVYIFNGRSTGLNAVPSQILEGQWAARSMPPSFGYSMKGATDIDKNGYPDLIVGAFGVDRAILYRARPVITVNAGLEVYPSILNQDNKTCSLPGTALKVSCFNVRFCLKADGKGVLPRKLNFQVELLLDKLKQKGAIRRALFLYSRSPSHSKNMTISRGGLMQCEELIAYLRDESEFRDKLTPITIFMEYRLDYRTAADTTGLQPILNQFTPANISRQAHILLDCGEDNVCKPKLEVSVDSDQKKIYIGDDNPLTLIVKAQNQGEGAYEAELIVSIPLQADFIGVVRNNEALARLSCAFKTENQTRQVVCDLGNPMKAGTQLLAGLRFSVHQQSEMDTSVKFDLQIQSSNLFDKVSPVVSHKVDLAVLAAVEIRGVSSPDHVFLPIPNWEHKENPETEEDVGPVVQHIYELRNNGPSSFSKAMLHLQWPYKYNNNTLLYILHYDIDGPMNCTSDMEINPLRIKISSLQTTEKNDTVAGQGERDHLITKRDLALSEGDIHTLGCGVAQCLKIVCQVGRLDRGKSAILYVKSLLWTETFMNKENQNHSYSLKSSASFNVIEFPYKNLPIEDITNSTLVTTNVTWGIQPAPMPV
T1 sequence (P18564 22-707 limits assumed): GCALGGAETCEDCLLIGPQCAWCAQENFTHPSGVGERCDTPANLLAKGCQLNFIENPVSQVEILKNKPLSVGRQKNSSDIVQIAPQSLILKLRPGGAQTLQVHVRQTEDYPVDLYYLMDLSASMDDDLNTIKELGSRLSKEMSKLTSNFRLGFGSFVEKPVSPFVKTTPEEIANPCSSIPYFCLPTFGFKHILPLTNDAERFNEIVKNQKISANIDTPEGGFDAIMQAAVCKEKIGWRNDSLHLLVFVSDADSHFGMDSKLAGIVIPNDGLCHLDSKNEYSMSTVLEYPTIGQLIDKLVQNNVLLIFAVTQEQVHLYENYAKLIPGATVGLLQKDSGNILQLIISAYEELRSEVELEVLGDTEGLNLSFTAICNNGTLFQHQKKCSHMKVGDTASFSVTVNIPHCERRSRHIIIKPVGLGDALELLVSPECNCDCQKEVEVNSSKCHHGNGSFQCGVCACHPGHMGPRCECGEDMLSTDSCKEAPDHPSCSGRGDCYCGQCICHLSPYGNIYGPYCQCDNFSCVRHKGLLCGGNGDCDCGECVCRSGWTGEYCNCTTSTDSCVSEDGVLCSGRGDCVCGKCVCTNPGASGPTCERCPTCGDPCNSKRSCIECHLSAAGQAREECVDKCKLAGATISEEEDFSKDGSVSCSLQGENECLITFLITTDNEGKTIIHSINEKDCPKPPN

In order of rising IC50:
1. O=C(NC[C@H](NS(=O)(=O)CCc1cccc2ccccc12)C(=O)O)c1cnn(CCc2ccc3c(n2)NCCC3)c1 [Example 139]  0.9 nM
2. O=C(NC[C@H](NS(=O)(=O)CCN1C(=O)c2ccccc2C1=O)C(=O)O)c1cnn(CCc2ccc3c(n2)NCCC3)c1 [Example 151]  1.2 nM
3. COc1ccc(S(=O)(=O)N[C@@H](CNC(=O)c2cnn(CCc3ccc4c(n3)NCCC4)c2)C(=O)O)cc1 [Example 19, (S)-2-((4-Methoxyphenyl)sulfonamido)-3-(1-(2-(5,6,7,8-tetrahydro-1,8-naphthyridin-2-yl)ethyl)-1H-pyrazole-4-carboxamido)propanoic acid]  1.3 nM
4. Cc1cc(C)c(S(=O)(=O)N[C@@H](CNC(=O)c2cnn(CCCNC3=NCC(F)CN3)c2)C(=O)O)c(C)c1 (some centres unmarked) [Example 173]  2.1 nM
5. C=CCOC(=O)N[C@@H](CNC(=O)c1cnn(CCc2ccc3c(n2)NCCC3)c1)C(=O)O [Example 133]  2.6 nM
6. O=C(NC[C@H](NS(=O)(=O)CC1CC1)C(=O)O)c1cnn(CCc2ccc3c(n2)NCCC3)c1 [Example 159]  2.7 nM
7. O=C(O)CC(NC(=O)c1cnn(CCc2ccc3c(n2)NCCC3)c1)c1ccc(Cl)c(C(F)(F)F)c1 (centres unmarked) [Example 24]  3.1 nM
8. CCCS(=O)(=O)N[C@@H](CNC(=O)c1cnn(CCc2ccc3c(n2)NCCC3)c1)C(=O)O [Example 138]  4.1 nM
9. O=C(O)C[C@H](NC(=O)c1cnn(CCc2ccc3c(n2)NCCC3)c1)c1cc(Cl)cc(Cl)c1 [Example 16, (S)-3-(3,5-Dichlorophenyl)-3-(1-(2-(5,6,7,8-tetrahydro-1,8-naphthyridin-2-yl)ethyl)-1H-pyrazole-4-carboxamido)propanoic acid]  4.2 nM
10. COCCOC(=O)N[C@@H](CNC(=O)c1cnn(CCc2ccc3c(n2)NCCC3)c1)C(=O)O [Example 149]  4.7 nM
11. Cc1cc(C)c(S(=O)(=O)N[C@H](CNC(=O)c2cnn(CCCc3ccc4c(n3)NCCC4)c2)C(=O)O)c(C)c1 [Example 28]  6.1 nM
12. O=C(NC[C@H](NS(=O)(=O)Cc1cccc(Cl)c1)C(=O)O)c1cnn(CCc2ccc3c(n2)NCCC3)c1 [Example 163]  6.2 nM
13. O=C(N[C@@H](CNCc1cnn(CCc2ccc3c(n2)NCCC3)c1)C(=O)O)OCc1ccccc1 [Example 174, (S)-2-(((Benzyloxy)carbonyl)amino)-3-(((1-(2-(5,6,7,8-tetrahydro-1,8-naphthyridin-2-yl)ethyl)-1H-pyrazol-4-yl)methyl)amino)propanoic acid]  6.2 nM
14. O=C(O)C[C@H](NC(=O)c1cnn(CCc2ccc3c(n2)NCCC3)c1CO)c1cc(Cl)cc(Cl)c1 [Example 29]  6.4 nM
15. O=C(O)CC(NC(=O)c1cnn(CCc2ccc3c(n2)NCCC3)c1)c1cc(Cl)cc(Cl)c1 (centres unmarked) [Example 30]  7.3 nM
16. O=C(NC[C@H](NS(=O)(=O)Cc1cccc(F)c1)C(=O)O)c1cnn(CCc2ccc3c(n2)NCCC3)c1 [Example 142]  8.2 nM
17. CC(C)(C)OCc1c(C(=O)NC(CC(=O)O)c2cccc(-n3cccc3)c2)cnn1CCc1ccc2c(n1)NCCC2 (centres unmarked) [Example 34]  10 nM
18. O=C(O)CC(NC(=O)c1cnn(CCc2ccc3c(n2)NCCC3)c1CO)c1cccc(OC(F)(F)F)c1 (centres unmarked) [Example 36]  11 nM
19. Cc1cc(C)n(-c2cccc(C(CC(=O)O)NC(=O)c3cnn(CCc4ccc5c(n4)NCCC5)c3COC(C)(C)C)c2)n1 (centres unmarked) [Example 37]  12 nM
20. COC(=O)N[C@@H](CNC(=O)c1cnn(CCc2ccc3c(n2)NCCC3)c1)C(=O)O [Example 130]  13 nM
21. CN(C(=O)c1cnn(CCc2ccc3c(n2)NCCC3)c1CO)C(CC(=O)O)c1cc(Cl)cc(Cl)c1 (centres unmarked) [Example 40]  14 nM
22. Cc1cc(C)c(S(=O)(=O)N[C@@H](CNC(=O)c2cnn(CCCNC3=NCCN3)c2)C(=O)O)c(C)c1 [Example 171]  14 nM
23. O=C(NC[C@H](NS(=O)(=O)Cc1cc(C(F)(F)F)cc(C(F)(F)F)c1)C(=O)O)c1cnn(CCc2ccc3c(n2)NCCC3)c1 [Example 157]  16 nM
24. Cc1cc(C)n(-c2cccc(C(CC(=O)O)NC(=O)c3cnn(CCc4ccc5c(n4)NCCC5)c3CO)c2)n1 (centres unmarked) [Example 42]  16 nM
25. O=C(O)CC(NC(=O)c1cnn(CCc2ccc3c(n2)NCCC3)c1CO)c1cccc(C(F)(F)F)c1 (centres unmarked) [Example 44]  16 nM
26. O=C(NC[C@H](NS(=O)(=O)Cc1cccc(C(F)(F)F)c1)C(=O)O)c1cnn(CCc2ccc3c(n2)NCCC3)c1 [Example 154]  16 nM
27. O=C(NC[C@H](NS(=O)(=O)Cc1ccc(F)cc1)C(=O)O)c1cnn(CCc2ccc3c(n2)NCCC3)c1 [Example 168]  17 nM
28. O=C(O)CC(NC(=O)c1cnn(CCc2ccc3c(n2)NCCC3)c1CO)c1cc(Cl)cc(Cl)c1 (centres unmarked) [Example 47]  22 nM
29. O=C(O)CC(NC(=O)c1cnn(CCc2ccc3c(n2)NCCC3)c1CO)c1cccc(Cl)c1 (centres unmarked) [Example 9, 3-(3-Chlorophenyl)-3-(5-(hydroxymethyl)-1-(2-(5,6,7,8-tetrahydro-1,8-naphthyridin-2-yl)ethyl)-1H-pyrazole-4-carboxamido)propanoic acid]  22 nM
30. Cc1c(C(=O)NC(CC(=O)O)c2cc(Cl)cc(Cl)c2)cnn1CCc1ccc2c(n1)NCCC2 (centres unmarked) [Example 49]  23 nM
31. Cc1cc(CS(=O)(=O)N[C@@H](CNC(=O)c2cnn(CCc3ccc4c(n3)NCCC4)c2)C(=O)O)no1 [Example 158]  29 nM
32. Cc1ccc(C(CC(=O)O)NC(=O)c2cnn(CCc3ccc4c(n3)NCCC4)c2CO)cc1C (centres unmarked) [Example 52]  29 nM
33. O=C(O)CC(NC(=O)c1cnn(CCc2ccc3c(n2)NCCC3)c1CO)c1ccc(C(F)(F)F)cc1 (centres unmarked) [Example 62]  49 nM
34. CC(C)(C)c1cc(Br)cc([C@H](CC(=O)O)NC(=O)c2cn(CCc3ccc4c(n3)NCCC4)nc2C(F)(F)F)c1 [Example 63]  56 nM
35. O=C(O)C[C@H](NC(=O)c1ncn(CCc2ccc3c(n2)NCCC3)n1)c1cc(Cl)cc(Cl)c1 [Example 120]  98 nM
36. O=C(O)CC(NC(=O)c1cnn(CCc2ccc3c(n2)NCCC3)c1CO)c1ccc(F)cc1 (centres unmarked) [Example 71]  120 nM
37. COc1ccc(C(CC(=O)O)NC(=O)c2cnn(CCc3ccc4c(n3)NCCC4)c2CO)cc1 (centres unmarked) [Example 73]  124 nM
38. COc1ccc([C@H](CC(=O)O)NC(=O)c2cnn(CCCc3ccc4c(n3)NCCC4)c2)cc1F [Example 74]  125 nM
39. Cc1nn(CCc2ccc3c(n2)NCCC3)c(C)c1C(=O)NC(CC(=O)O)c1ccc(C(F)(F)F)cc1 (centres unmarked) [Example 77]  134 nM
40. O=C(O)CC(NC(=O)c1cnn(CCc2ccc3c(n2)NCCC3)c1CO)c1cc(F)cc(F)c1 (centres unmarked) [Example 80]  178 nM
41. O=C(O)CCN(Cc1cnn(CCc2ccc3c(n2)NCCC3)c1)C(=O)OCc1ccccc1 [Example 176, 3-(((Benzyloxy)carbonyl)((1-(2-(5,6,7,8-tetrahydro-1,8-naphthyridin-2-yl)ethyl)-1H-pyrazol-4-yl)methyl)amino)propanoic acid]  249 nM
42. O=C(O)CCNCc1cnn(CCc2ccc3c(n2)NCCC3)c1 [Example 175, 3-(((1-(2-(5,6,7,8-Tetrahydro-1,8-naphthyridin-2-yl)ethyl)-1H-pyrazol-4-yl)methyl)amino)propanoic acid]  272 nM
43. Cc1nn(CCc2ccc3c(n2)NCCC3)c(C)c1C(=O)NC(CC(=O)O)c1cc(Cl)cc(Cl)c1 (centres unmarked) [Example 83]  278 nM
44. CC(C)(C)OCc1nn(CCc2ccc3c(n2)NCCC3)cc1C(=O)NC(CC(=O)O)c1ccc(Cl)c(Cl)c1 (centres unmarked) [Example 84]  284 nM
45. CC(C)(C)OCc1nn(CCc2ccc3c(n2)NCCC3)cc1C(=O)NC(CC(=O)O)c1cc(Cl)cc(Cl)c1 (centres unmarked) [Example 3]  312 nM
46. COc1ccc([C@H](CC(=O)O)NC(=O)c2cnn(CCCc3ccc4c(n3)NCCC4)c2)cn1 [Example 87]  339 nM
47. COc1ccc([C@H](CC(=O)O)NC(=O)c2cn(CCc3ccc4c(n3)NCCC4)nc2CO)cc1F [Example 2, (S)-3-(3-Fluoro-4-methoxyphenyl)-3-(3-(hydroxymethyl)-1-(2-(5,6,7,8-tetrahydro-1,8-naphthyridin-2-yl)ethyl)-1H-pyrazole-4-carboxamido)propanoic acid]  349 nM
48. COc1ccc([C@H](CC(=O)O)NC(=O)c2cnn(CCCNC3=NCCN3)c2)cn1 [Example 88]  378 nM
49. COc1ccc([C@H](CC(=O)O)NC(=O)c2cnn(CCCNc3ccccn3)c2)cn1 [Example 94]  592 nM
50. O=C(O)C[C@H](NC(=O)c1cnn(Cc2ccc3c(n2)NCCC3)c1)c1cc(Cl)cc(Cl)c1 [Example 97]  1170 nM
51. Cc1nc2c(cc1Cn1cc(C(=O)NC(CC(=O)O)c3cc(Cl)cc(Cl)c3)c(C)n1)CCCN2 (centres unmarked) [Example 100]  1460 nM
52. CCOC(=O)C[C@H](NC(=O)c1cnn(CCc2ccc3c(n2)NCCC3)c1)c1cc(Cl)cc(Cl)c1 [Example 101]  1460 nM
53. O=C(O)CC(NC(=O)c1cnn(CCc2ccc3c(n2)NCCC3)c1CO)c1ccccc1Cl (centres unmarked) [Example 103]  2600 nM
54. Cc1nc2c(cc1Cn1cc(C(=O)NC(CC(=O)O)c3cc(Cl)cc(Cl)c3)c(CO)n1)CCCN2 (centres unmarked) [Example 105]  3930 nM
55. CCOC(=O)C[C@H](NC(=O)c1cnn(CCc2ccc3c(n2)NCCC3)c1)c1cc(Br)cc(C(C)(C)C)c1 [Example 106]  4310 nM
56. Cc1nc2c(cc1CCn1ncc(C(=O)NC(CC(=O)O)c3cc(Cl)cc(Cl)c3)c1COC(C)(C)C)CCCN2 (centres unmarked) [Example 108]  5000 nM

From US10851098B2, “Azole amides and amines as alpha v integrin inhibitors” (BRISTOL-MYERS SQUIBB COMPANY, priority 2016, dated 2020)
